From patent US20060235222A1, “Indole-derivative modulators of steroid hormone nuclear receptors” (ELI LILLY AND COMPANY, priority 2003, published 2006)

Experiments:
[1] = target: T1, human GR (glucocorticoid receptor) (Homo sapiens, UniProt P04150); assay: Alternative Binding Assay Protocol (Method 2), 293-GR lysate, 3H-dexamethasone competition; settings: 0.3 nM 3H-dexamethasone
T1 construct: expressed in transfected cells; host or cells: 293 cells
T1 sequence (P04150 1-777): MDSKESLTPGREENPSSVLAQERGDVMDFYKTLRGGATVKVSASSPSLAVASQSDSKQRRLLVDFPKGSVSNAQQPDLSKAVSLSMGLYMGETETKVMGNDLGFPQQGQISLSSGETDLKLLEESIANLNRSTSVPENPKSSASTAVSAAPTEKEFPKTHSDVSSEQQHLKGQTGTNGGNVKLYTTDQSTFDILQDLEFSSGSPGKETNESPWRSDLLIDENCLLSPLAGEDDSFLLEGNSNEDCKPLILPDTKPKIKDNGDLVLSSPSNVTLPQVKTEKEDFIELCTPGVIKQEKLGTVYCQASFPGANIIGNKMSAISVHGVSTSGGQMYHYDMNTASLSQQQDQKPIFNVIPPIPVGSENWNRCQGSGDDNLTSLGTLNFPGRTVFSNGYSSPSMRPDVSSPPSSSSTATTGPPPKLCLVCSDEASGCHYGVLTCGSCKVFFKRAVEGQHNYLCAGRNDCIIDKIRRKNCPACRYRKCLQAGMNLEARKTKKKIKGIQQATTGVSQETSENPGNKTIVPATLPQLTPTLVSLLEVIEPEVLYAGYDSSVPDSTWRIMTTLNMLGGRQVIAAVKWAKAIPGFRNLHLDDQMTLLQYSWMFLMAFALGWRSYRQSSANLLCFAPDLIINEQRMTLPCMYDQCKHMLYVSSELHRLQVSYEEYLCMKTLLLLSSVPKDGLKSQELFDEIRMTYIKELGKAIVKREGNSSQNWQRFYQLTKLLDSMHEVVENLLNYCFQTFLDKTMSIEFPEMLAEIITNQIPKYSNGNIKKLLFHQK
Procedure: Alternative Binding Assay Protocol for MR, GR, AR, and PR (Method 2):
Cell lysates from 293 cells overexpressing human GR (glucocorticoid receptor), AR (androgen receptor), MR (mineralocorticoid receptor) or PR (progesterone-receptor) are used for competition binding assays to determine Ki values for test compounds. […] Competing compounds are added at various concentraions in half-log increments. Non-specific binding is determined in the presence of 500 nM dexamethasone for GR binding, 500 nM aldosterone for MR binding, or 500 nM methyltrienolone for AR and PR binding. The binding reaction (140 μl) is incubated for overnight at 4° C., then 70 μl of cold charcoal-dextran buffer (containing per 50 ml of assay buffer, 0.75 g of charcoal and 0.25 g of dextran) is added to each reaction. Plates are mixed 8 minutes on an orbital shaker at 4° C. Plates are then centrifuged at 3,000 rpm at 4° C. for 10 minutes. An aliquot of 120 μl of the mix is transferred to another 96-well plate and 175 μl of Wallac Optiphase “Hisafe 3” scintillation fluid is added to each well. Plates are sealed and shaken vigorously on an orbital shaker. After an incubation of 2 hrs, plates are read in a Wallac Microbeta counter. […] The Kd for ^3H-dexamethasone for GR binding, ^3H-methyltrienolone for AR binding, ^3H-aldosterone for MR binding, or ^3H-methyltrienolone for PR binding, is determined by saturation binding. The IC50 values for compounds are converted to Ki using Cheng-Prusoff equation and the Kd determined by saturation binding assay.

[2] = target: T2, human MR (Homo sapiens, UniProt P08235); assay: Mineralocorticoid Receptor Binding Assay (Method 1), [3H]-aldosterone competition; settings: 0.5 nM [3H]-aldosterone, human MR expressed in Sf9 cells
T2 construct: The full length human MR gene is cloned from a human kidney or human brain cDNA library; inferred from own knowledge of the pAcHLT vector (N); made in house; host or cells: Sf9 insect cells (baculovirus)
T2 sequence (P08235 1-984): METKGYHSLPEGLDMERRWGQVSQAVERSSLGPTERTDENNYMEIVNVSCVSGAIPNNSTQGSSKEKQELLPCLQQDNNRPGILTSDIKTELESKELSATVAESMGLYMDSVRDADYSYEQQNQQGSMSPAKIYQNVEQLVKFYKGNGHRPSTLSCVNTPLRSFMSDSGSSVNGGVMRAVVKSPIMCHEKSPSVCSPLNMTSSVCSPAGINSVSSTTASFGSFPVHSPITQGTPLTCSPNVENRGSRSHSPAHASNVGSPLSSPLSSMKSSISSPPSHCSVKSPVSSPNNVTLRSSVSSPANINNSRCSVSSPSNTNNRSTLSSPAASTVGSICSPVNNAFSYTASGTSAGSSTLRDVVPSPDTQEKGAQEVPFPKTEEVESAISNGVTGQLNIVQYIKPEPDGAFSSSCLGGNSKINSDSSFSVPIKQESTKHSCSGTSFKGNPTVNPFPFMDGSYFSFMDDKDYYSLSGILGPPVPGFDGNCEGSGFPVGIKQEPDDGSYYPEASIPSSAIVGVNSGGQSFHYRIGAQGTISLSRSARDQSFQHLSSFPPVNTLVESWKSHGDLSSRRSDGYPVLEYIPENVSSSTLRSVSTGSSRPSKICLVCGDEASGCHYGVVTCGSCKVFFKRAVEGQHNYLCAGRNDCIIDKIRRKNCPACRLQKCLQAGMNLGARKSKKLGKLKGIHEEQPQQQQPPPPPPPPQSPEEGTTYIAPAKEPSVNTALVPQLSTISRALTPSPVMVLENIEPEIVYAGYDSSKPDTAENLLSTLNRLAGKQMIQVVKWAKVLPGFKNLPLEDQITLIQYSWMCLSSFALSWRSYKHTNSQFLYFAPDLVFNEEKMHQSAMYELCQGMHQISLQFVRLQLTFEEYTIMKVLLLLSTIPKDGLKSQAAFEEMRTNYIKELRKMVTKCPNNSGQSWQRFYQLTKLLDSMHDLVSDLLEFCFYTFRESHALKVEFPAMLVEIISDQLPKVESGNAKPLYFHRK
How it was run: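 Full-length human MR expressed in Sf9 cells via baculovirus; lysate supernatant (about 20-25 μg protein) incubated with 0.5 nM [3H]-aldosterone and test compound for about 16 h at 4° C. Buffer was Tris/molybdate/phosphate/pyrophosphate with 10% glycerol, pH 7.5; filter-bound complex counted by scintillation.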

| SMILES | Ki [1] [nM] | Ki [2] [nM] | melting point [°C] |
| --- | --- | --- | --- |
| CCc1ccc(C(CC)(CC)c2c[nH]c3c(NS(C)(=O)=O)cccc23)cc1 [Example 171] | < 500 |  |  |
| CCCC(c1ccc(F)cc1)(c1c[nH]c2c(NS(C)(=O)=O)cccc12)C1CC1 (centres unmarked) [Example 179] | < 500 | < 500 |  |
| C[C@@](c1ccc(Cl)cc1)(c1c[nH]c2c(NS(C)(=O)=O)cccc12)C1CC1 [Example 174] | < 500 | < 500 |  |
| CCC(CC)(c1ccc2c(ccn2C(C)=O)c1)c1c[nH]c2c(NS(C)(=O)=O)cccc12 [Example 156, N-{3-[1-(1-Acetyl-1H-indol-5-yl)-1-ethyl-propyl]-1H-indol-7-yl}-methanesulfonamide] |  |  | 125 to 130 |
| CCCC(CCC)(c1ccc(OC)cc1)c1c[nH]c2c(NS(C)(=O)=O)cccc12 [Example 176] | < 500 |  |  |
| CCC(CC)(c1cccc2oc(C)cc12)c1c[nH]c2c(NS(C)(=O)=O)cccc12 [Example 160, N-{3-[1-Ethyl-1-(2-methyl-benzofuran-4-yl)-propyl]-1H-indol-7-yl}-methanesulfonamide] |  |  | 85 to 90 |
| CCC(CC)(c1ccc2oc(C)cc2c1)c1c[nH]c2c(NS(C)(=O)=O)cccc12 [Example 181] | < 500 | < 500 |  |
| CC(c1ccc2c(c1)OCO2)(c1c[nH]c2c(NS(C)(=O)=O)cccc12)C1CC1 (centres unmarked) [Example 175] | < 500 | < 500 |  |
| COc1ccc(C(C)(c2c[nH]c3c(NS(C)(=O)=O)cccc23)C2CC2)cc1 (centres unmarked) [Example 170] | < 500 | < 500 |  |
| C[C@](c1ccc(Cl)cc1)(c1c[nH]c2c(NS(C)(=O)=O)cccc12)C1CC1 [Example 164] | < 500 | < 500 |  |
| CC(c1ccc(Cl)cc1)(c1c[nH]c2c(NS(C)(=O)=O)cccc12)C1CC1 (centres unmarked) [Example 167] | < 500 | < 500 |  |
| Cc1ccc(C(C)(c2c[nH]c3c(NS(C)(=O)=O)cccc23)C2CC2)cc1 (centres unmarked) [Example 169] | < 500 | < 500 |  |
| CCC(CC)(c1ccc(N2CCOCC2)cc1)c1c[nH]c2c(NS(C)(=O)=O)cccc12 [Example 197] | < 500 | < 500 |  |
| CCC(CC)(c1ccc2nc(NC(C)=O)sc2c1)c1c[nH]c2c(NS(C)(=O)=O)cccc12 [Example 199] | < 500 | < 1000 |  |
| CC1(c2c[nH]c3c(NS(C)(=O)=O)cccc23)CCCCc2ccccc21 (centres unmarked) [Example 189] | < 500 | < 500 |  |
| CCC(CC)(c1ccc2c(c1)nc(C)n2C)c1c[nH]c2c(NS(C)(=O)=O)cccc12 [Example 162, N-{3-[1-(1,2-Dimethyl-1H-benzoimidazol-5-yl)-1-ethyl-propyl]-1H-indol-7-yl}-methanesulfonamide] |  |  | 275 to 278 |
| CCC(CC)(c1ccc2sc(NC(C)=O)nc2c1)c1c[nH]c2c(NS(C)(=O)=O)cccc12 [Example 150, N-{5-[1-Ethyl-1-(7-methanesulfonylamino-1H-indol-3-yl)-propyl]-benzothiazol-2-yl}-acetamide] |  |  | 266 to 268 |

| SMILES | Ki [1] [nM] | Ki [2] [nM] | melting point [°C] |
| --- | --- | --- | --- |
| C[C@](c1ccc(F)cc1)(c1c[nH]c2c(NS(C)(=O)=O)cccc12)C1CC1 [Example 173] | < 500 | < 500 |  |
| CCC(CC)(c1ccc2oc(C)cc2c1)c1c[nH]c2c(NS(C)(=O)=O)cccc12 [Example 155, N-{3-[1-Ethyl-1-(2-methyl-benzofuran-5-yl)-propyl]-1H-indol-7-yl}-methanesulfonamide] |  |  | 100 to 105 |
| CCC(CC)(c1ccc2oc(C)nc2c1)c1c[nH]c2c(NS(C)(=O)=O)cccc12 [Example 145, N-{3-[1-Ethyl-1-(2-methyl-benzooxazol-5-yl)-propyl]-1H-indol-7-yl}-methanesulfonamide] |  |  | 152 to 160 |
| CCC(CC)(c1ccc2nc(C(F)(F)F)[nH]c2c1)c1c[nH]c2c(NS(C)(=O)=O)cccc12 [Example 151, N-{3-[1-Ethyl-1-(2-trifluoromethyl-3H-benzoimidazol-5-yl)-propyl]-1H-indol-7-yl}-methanesulfonamide] |  |  | 225 to 235 |
| CCCCC(c1ccc(F)cc1)(c1c[nH]c2c(NS(C)(=O)=O)cccc12)C1CC1 (centres unmarked) [Example 185] | < 500 | < 500 |  |
| C[C@](c1ccccc1F)(c1c[nH]c2c(NS(C)(=O)=O)cccc12)C1CC1 [Example 172] | < 500 | < 500 |  |
| CCC(CC)(c1ccc2oc(C)nc2c1)c1c[nH]c2c(NS(C)(=O)=O)cccc12 [Example 191] | < 1000 | < 500 |  |
| C[C@@](c1ccc(F)cc1)(c1c[nH]c2c(NS(C)(=O)=O)cccc12)C1CC1 [Example 186] | < 500 | < 500 |  |
| CC(C)CC(C)(c1ccccc1)c1c[nH]c2c(NS(C)(=O)=O)cccc12 (centres unmarked) [Example 187] | < 500 | < 500 |  |
| C[C@@](c1ccccc1F)(c1c[nH]c2c(NS(C)(=O)=O)cccc12)C1CC1 [Example 180] | < 500 | < 500 |  |
| CCC(CC)(c1ccc(C(C)C)cc1)c1c[nH]c2c(NS(C)(=O)=O)cccc12 [Example 182] | < 10000 | < 500 |  |
| CCC(CC)(c1ccc2sc(C)nc2c1)c1c[nH]c2c(NS(C)(=O)=O)cccc12 [Example 190] | < 500 | < 500 |  |
| CCC(CC)(c1ccc2nc(C)oc2c1)c1c[nH]c2c(NS(C)(=O)=O)cccc12 [Example 193] | < 500 | < 500 |  |
| CCC(CC)(c1ccc2c(ccn2C(C)=O)c1)c1c[nH]c2c(NS(C)(=O)=O)cccc12 [Example 195] | < 1000 | < 500 |  |
| CC(c1ccccc1F)(c1c[nH]c2c(NS(C)(=O)=O)cccc12)C1CC1 (centres unmarked) [Example 168] | < 500 | < 500 |  |
| CCC(c1ccc(F)cc1)(c1c[nH]c2c(NS(C)(=O)=O)cccc12)C1CC1 (centres unmarked) [Example 165] | < 500 | < 500 |  |
| CC(c1ccccc1)(c1c[nH]c2c(NS(C)(=O)=O)cccc12)C1CC1 (centres unmarked) [Example 178] | < 500 | < 500 |  |
